The record followed here is patent publication US20210038607A1, “OXADIAZOLYLTHIOPHENE DERIVATIVES USEFUL AS HISTONE DEACETYLASE INHIBITORS” (Karus Therapeutics Limited, priority 2018, published 2021).

One assay has as its target T1, Human HDAC1 (Homo sapiens, UniProt Q13547).
T1 construct: full length with C-terminal His-tag and C-terminal FLAG-tag; His (C); FLAG (C); host or cells: baculovirus expression system
Description: HDAC1 biochemical assay, AMC-labeled peptide substrate. The following applies: read-out: HDAC Isoform IC50 (nM) 1. The method in brief:
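Two-step fluorogenic read: HDAC1 deacetylates 50 μM acetyl-lysine AMC peptide RHKK(Ac)AMC for 1 h at 30° C (pH 8.0, 1% DMSO, with compound), then developer digests the product for fluorescence at Ex/Em 360/460. Enzyme is full-length human, His/FLAG-tagged, insect-cell expressed, at 0.3 ng/ul.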

Another assay concerns the target T2, Human HDAC4 (Homo sapiens, UniProt P56524).
T2 construct: amino acids 627-1085 with N-terminal GST tag; GST (N); host or cells: baculovirus expression system
Put plainly: HDAC4 biochemical assay, class IIa-specific substrate. The following applies: read-out: HDAC Isoform IC50 (nM) 4. The method in brief:
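Two-step fluorogenic read-out: deacetylated BOC-Lys(trifluoroacetyl)-AMC (50 μM) was digested by developer and measured at Ex/Em 360/460. Deacetylation by 0.004 ng/ul HDAC4 (aa 627-1085, N-terminal GST) ran 30 min at room temperature, pH 8.0 Tris buffer, 1 mg/mL BSA, 1% DMSO.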

Another assay deals with T3, Human HDAC5 (Homo sapiens, UniProt Q9UQL6).
T3 construct: full length with C-terminal His tag, MW=51.1 kDa; His (C); host or cells: baculovirus expression system
Description: HDAC5 biochemical assay, class IIa-specific substrate. The note with it: read-out: HDAC Isoform IC50 (nM) 5. An outline of the steps:
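Two-step fluorogenic read-out: deacetylated trifluoroacetyl-lysine AMC substrate (50 μM) digested by developer, measured at Ex/Em 360/460. Deacetylation step: 0.05 ng/ul His-tagged full-length baculoviral enzyme with compound, 30 min, room temperature, pH 8.0 Tris with 1 mg/mL BSA and 1% DMSO.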

For another assay, the target named is T4, Recombinant human HDAC6 (Homo sapiens, UniProt Q9UBN7).
T4 construct: full length, MW=159 kDa; GST (N); host or cells: Sf9 insect cells (baculovirus)
T4 sequence (Q9UBN7 1-1215): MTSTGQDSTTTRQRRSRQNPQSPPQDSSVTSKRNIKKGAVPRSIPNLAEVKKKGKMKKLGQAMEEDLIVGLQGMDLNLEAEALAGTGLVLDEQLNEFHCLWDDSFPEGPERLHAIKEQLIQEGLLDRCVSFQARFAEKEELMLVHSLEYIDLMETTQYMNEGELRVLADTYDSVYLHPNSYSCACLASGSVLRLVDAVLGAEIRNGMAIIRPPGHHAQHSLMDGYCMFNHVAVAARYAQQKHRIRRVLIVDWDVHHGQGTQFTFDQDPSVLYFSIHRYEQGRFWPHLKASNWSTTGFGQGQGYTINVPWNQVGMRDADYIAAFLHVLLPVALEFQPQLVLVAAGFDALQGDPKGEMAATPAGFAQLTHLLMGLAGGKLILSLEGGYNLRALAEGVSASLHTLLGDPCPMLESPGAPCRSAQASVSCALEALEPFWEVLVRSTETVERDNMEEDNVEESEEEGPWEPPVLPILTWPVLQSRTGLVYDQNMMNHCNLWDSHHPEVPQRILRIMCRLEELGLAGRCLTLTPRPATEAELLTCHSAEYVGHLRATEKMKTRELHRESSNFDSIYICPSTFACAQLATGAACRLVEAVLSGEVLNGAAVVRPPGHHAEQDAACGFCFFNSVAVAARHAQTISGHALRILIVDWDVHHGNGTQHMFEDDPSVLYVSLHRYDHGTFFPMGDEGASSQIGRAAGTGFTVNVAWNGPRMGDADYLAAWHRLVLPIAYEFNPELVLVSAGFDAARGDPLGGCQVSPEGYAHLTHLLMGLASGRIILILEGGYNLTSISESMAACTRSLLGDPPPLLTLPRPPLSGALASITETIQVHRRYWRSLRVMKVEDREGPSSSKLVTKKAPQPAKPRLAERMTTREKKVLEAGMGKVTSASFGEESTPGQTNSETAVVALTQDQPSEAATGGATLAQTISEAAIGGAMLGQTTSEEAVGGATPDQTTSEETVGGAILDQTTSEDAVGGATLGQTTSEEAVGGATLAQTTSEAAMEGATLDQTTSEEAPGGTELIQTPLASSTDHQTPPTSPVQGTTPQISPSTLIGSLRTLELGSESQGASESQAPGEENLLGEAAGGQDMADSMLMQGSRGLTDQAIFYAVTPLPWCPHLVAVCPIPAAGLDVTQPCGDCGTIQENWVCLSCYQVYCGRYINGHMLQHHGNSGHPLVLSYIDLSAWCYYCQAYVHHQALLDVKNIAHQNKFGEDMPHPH
Put plainly: HDAC6 biochemical assay, AMC-labeled peptide substrate. The following applies: HDAC6; read-out: HDAC Isoform IC50 (nM) 6. The method in brief:
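Two-step fluorogenic read-out: enzyme deacetylates 50 μM RHKK(Ac)AMC for 1 h at 30° C in pH 8.0 Tris buffer with BSA and 1% DMSO, then developer cleavage gives signal at Ex 360/Em 460. Enzyme: 0.3 ng/ul recombinant full-length human HDAC6, GST-tagged, Sf9-expressed.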

In the next assay the target is T5, Human HDAC7 (Homo sapiens, UniProt Q8WUI4).
T5 construct: (a.a. 518-end) with N-terminal GST tag; GST (N); host or cells: baculovirus expression system
T5 sequence (Q8WUI4 518-952 limits assumed): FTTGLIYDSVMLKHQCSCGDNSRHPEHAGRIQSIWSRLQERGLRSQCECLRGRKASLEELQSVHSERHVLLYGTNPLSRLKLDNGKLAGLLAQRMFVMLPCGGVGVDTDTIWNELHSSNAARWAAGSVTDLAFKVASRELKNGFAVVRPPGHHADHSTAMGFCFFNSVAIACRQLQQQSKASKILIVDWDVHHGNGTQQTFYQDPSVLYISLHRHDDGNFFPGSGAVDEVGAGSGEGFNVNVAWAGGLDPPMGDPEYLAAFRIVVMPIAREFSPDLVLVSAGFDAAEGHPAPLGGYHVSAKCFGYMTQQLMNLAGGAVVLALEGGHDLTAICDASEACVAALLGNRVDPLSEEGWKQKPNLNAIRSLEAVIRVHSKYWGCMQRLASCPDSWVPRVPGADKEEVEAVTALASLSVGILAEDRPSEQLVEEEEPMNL
Put plainly: HDAC7 biochemical assay, class IIa-specific substrate. The note with it: read-out: HDAC Isoform IC50 (nM) 7. The method in brief: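 Two-step fluorogenic readout: class IIa-selective trifluoroacetyl-lysine AMC substrate (50 μM) deacetylated by N-terminal GST-HDAC7 fragment (0.001 ng/ul), then digested by developer, Ex/Em 360/460. Reaction: 30 min, room temperature, Tris-HCl pH 8.0, NaCl/KCl/MgCl2, 1 mg/mL BSA, 1% DMSO.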

Another assay has as its target T6, Human HDAC9 (Homo sapiens, UniProt Q9UKV0).
T6 construct: amino acids 604-1066 with C-terminal His tag; His (C); host or cells: baculovirus expression system
Description: HDAC9 biochemical assay, class IIa-specific substrate. The note with it: read-out: HDAC Isoform IC50 (nM) 9. The method in brief:
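HDAC9 residues 604-1066 (C-terminal His tag, baculovirus-expressed) at 0.06 ng/ul with 50 μM class IIa substrate Boc-Lys(trifluoroacetyl)-AMC in Tris-HCl pH 8.0 buffer with BSA and 1% DMSO. 30 min at room temperature, then developer added; fluorescence read at 360/460 nm Ex/Em.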

Each structure is given as a SMILES string.

T3 sequence (Q9UQL6 656-1122 limits assumed): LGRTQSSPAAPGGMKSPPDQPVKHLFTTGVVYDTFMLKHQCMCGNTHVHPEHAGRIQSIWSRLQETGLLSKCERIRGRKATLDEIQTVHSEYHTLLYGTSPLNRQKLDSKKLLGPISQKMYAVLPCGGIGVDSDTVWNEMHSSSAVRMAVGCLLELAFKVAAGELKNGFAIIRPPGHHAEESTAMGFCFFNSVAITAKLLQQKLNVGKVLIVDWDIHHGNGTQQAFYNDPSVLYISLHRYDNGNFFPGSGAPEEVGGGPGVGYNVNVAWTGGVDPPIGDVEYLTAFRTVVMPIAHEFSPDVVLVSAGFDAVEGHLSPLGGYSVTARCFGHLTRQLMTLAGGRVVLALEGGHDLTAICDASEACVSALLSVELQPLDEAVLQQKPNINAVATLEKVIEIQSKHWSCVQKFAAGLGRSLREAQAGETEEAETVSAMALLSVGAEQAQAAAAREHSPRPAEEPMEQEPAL
T6 sequence (Q9UKV0 604-1066 isoform Q9UKV0-5): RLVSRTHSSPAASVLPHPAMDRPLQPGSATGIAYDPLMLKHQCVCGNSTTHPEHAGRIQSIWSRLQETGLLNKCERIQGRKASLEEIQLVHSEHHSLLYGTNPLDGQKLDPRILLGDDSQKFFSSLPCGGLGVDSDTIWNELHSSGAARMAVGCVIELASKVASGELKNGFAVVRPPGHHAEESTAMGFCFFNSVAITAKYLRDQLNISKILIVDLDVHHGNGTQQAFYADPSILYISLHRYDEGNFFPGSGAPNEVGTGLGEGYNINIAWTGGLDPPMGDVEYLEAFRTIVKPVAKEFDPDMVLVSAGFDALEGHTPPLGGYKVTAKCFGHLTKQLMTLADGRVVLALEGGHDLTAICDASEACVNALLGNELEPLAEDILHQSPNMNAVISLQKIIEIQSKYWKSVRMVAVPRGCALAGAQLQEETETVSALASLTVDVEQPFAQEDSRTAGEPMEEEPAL
T1 sequence (Q13547 whole entry): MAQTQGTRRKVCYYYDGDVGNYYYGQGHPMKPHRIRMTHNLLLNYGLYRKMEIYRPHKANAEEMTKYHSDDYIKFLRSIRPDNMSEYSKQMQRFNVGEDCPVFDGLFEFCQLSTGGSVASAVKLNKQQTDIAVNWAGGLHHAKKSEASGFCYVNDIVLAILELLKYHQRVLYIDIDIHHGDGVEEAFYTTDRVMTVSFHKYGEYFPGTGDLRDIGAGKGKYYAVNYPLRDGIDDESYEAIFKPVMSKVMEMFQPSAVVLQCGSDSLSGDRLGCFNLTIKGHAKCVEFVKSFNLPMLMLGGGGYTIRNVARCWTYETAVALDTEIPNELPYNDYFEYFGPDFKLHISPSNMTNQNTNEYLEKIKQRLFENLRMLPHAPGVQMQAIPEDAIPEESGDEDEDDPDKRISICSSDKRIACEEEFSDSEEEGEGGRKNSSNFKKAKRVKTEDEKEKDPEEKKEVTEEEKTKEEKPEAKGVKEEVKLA
T2 sequence (P56524 627-1084 limits assumed): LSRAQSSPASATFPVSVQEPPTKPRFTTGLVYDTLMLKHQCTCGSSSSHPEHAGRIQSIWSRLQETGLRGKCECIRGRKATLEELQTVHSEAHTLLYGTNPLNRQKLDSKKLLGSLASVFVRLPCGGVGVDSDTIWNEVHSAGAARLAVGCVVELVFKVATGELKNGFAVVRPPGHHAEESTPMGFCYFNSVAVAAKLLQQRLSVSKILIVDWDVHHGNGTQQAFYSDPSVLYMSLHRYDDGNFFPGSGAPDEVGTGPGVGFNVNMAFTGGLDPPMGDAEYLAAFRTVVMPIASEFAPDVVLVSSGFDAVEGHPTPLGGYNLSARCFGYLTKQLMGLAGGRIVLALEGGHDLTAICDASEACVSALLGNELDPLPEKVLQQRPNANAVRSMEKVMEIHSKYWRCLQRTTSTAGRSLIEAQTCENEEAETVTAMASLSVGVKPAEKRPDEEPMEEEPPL

As to `COc1cnc(N(Cc2ccc(-c3noc(C(F)(F)F)n3)s2)c2cc(C(F)(F)F)cnn2)cn1` [Example EP, N-(5-Methoxypyrazin-2-yl)-5-(trifluoromethyl)-N-({5-[5-(trifluoromethyl)-1,2,4-oxadiazol-3-yl]thiophen-2-yl}methyl)pyridazin-3-amine], the IC50 on Human HDAC1 is more than 10000 nM; on Human HDAC4, not above 10000 nM; on Human HDAC5, not above 10000 nM; at Recombinant human HDAC6, not above 10000 nM; on Human HDAC7, not above 10000 nM; on Human HDAC9, more than 10000 nM.

For `FC(F)(F)c1nc(-c2ccc(CN(c3cnccn3)c3nccc4cnccc34)s2)no1` [Example AK, N-(Pyrazin-2-yl)-N-({5-[5-(trifluoromethyl)-1,2,4-oxadiazol-3-yl]thiophen-2-yl}methyl)-2,6-naphthyridin-1-amine], the IC50 is more than 10000 nM on Human HDAC1; not above 500 nM on Human HDAC4; not above 500 nM on Human HDAC5; not above 1000 nM on Recombinant human HDAC6; not above 500 nM on Human HDAC7; not above 500 nM on Human HDAC9.

Take `FC(F)(F)c1ccnc(N(Cc2ccc(-c3noc(C(F)(F)F)n3)s2)c2cnccn2)c1` [Example AI, N-({5-[5-(Trifluoromethyl)-1,2,4-oxadiazol-3-yl]thiophen-2-yl}methyl)-N-[4-(trifluoromethyl)pyridin-2-yl]pyrazin-2-amine]: the IC50 is more than 10000 nM at Human HDAC1; more than 10000 nM on Human HDAC4; not above 10000 nM at Human HDAC5; not above 10000 nM at Recombinant human HDAC6; more than 10000 nM on Human HDAC7; more than 10000 nM at Human HDAC9.

Turning to `FC(F)(F)c1cnnc(N(Cc2ccc(-c3noc(C(F)(F)F)n3)s2)c2ccc(N3CCOCC3)nn2)c1` [Example EX, 6-(Morpholin-4-yl)-N-({5-[5-(trifluoromethyl)-1,2,4-oxadiazol-3-yl]thiophen-2-yl}methyl)-N-[5-(trifluoromethyl)pyridazin-3-yl]pyridazin-3-amine], the IC50 on Human HDAC1 is not above 10000 nM; on Human HDAC4 it was not above 10000 nM; at Human HDAC5 it was not above 10000 nM; at Recombinant human HDAC6, not above 1000 nM; at Human HDAC7, not above 10000 nM; on Human HDAC9, not above 10000 nM.

In the case of `FC(F)(F)c1nc(-c2ccc(CN(c3cnccn3)c3cccc(N4CCOCC4)n3)s2)no1` [Example W, N-[6-(Morpholin-4-yl)pyridin-2-yl]-N-({5-[5-(trifluoromethyl)-1,2,4-oxadiazol-3-yl]thiophen-2-yl}methyl)pyrazin-2-amine], the IC50 on Human HDAC1 was more than 10000 nM; at Human HDAC4, not above 10000 nM; at Human HDAC5 it was not above 10000 nM; at Recombinant human HDAC6, not above 10000 nM; at Human HDAC7, not above 10000 nM; on Human HDAC9, not above 10000 nM.

For the molecule `FC(F)(F)c1nc(-c2ccc(CN(c3ccncc3)c3cnccn3)s2)no1` [Example AR, N-(Pyridin-4-yl)-N-({5-[5-(trifluoromethyl)-1,2,4-oxadiazol-3-yl]thiophen-2-yl}methyl)pyrazin-2-amine], the IC50 at Human HDAC1 is more than 10000 nM; at Human HDAC4, not above 500 nM; at Human HDAC5 it was not above 500 nM; at Recombinant human HDAC6, not above 500 nM; at Human HDAC7, not above 500 nM; at Human HDAC9, not above 1000 nM.

In the case of `Cc1nccc(N(Cc2ccc(-c3noc(C(F)(F)F)n3)s2)c2cnccn2)n1` [Example CA, 2-Methyl-N-(pyrazin-2-yl)-N-({5-[5-(trifluoromethyl)-1,2,4-oxadiazol-3-yl]thiophen-2-yl}methyl)pyrimidin-4-amine], the IC50 on Human HDAC1 is more than 10000 nM; on Human HDAC4, not above 1000 nM; on Human HDAC5, not above 1000 nM; at Recombinant human HDAC6, not above 10000 nM; on Human HDAC7, not above 1000 nM; at Human HDAC9 it was not above 1000 nM.

On to `FC(F)(F)c1nc(-c2ccc(CN(c3cnccn3)c3cccnn3)s2)no1` [Example DD, N-(Pyrazin-2-yl)-N-({5-[5-(trifluoromethyl)-1,2,4-oxadiazol-3-yl]thiophen-2-yl}methyl)pyridazin-3-amine], for which the IC50 was more than 10000 nM at Human HDAC1; not above 1000 nM on Human HDAC4; not above 10000 nM on Human HDAC5; not above 10000 nM on Recombinant human HDAC6; not above 10000 nM on Human HDAC7; not above 10000 nM at Human HDAC9.

The IC50 is the concentration needed to halve the response being measured.
